Laboratory results published in ChEMBL document CHEMBL1909046, “DrugMatrix in vitro pharmacology data”.

What was measured:
Neutrophil elastase = molecular target: T1, Neutrophil elastase (Homo sapiens, UniProt P08246); type: tissue-based;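 note: inhibition of neutrophil elastase enzyme activity, measured with a p-nitroanilide-linked peptide substrate; in other assays of this panel Not Active means under 50% inhibition at 10 µM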
T1 sequence (P08246 whole entry): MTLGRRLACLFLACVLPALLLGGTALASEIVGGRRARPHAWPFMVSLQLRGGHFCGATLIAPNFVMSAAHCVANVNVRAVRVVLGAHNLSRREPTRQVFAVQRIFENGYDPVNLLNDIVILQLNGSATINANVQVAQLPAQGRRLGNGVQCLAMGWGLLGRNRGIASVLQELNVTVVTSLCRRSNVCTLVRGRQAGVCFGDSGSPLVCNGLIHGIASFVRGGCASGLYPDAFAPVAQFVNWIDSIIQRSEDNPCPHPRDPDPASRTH

Substance-P receptor = Substance-P receptor (Homo sapiens, UniProt P25103); type: cell membranes, CHO, Membrane; conditions: cho; note: in other assays of this panel Not Active means under 50% inhibition at 10 µM
[1] = DRUGMATRIX: Phosphodiesterase PDE4 enzyme inhibition (substrate: [3H]cAMP + cAMP); conditions: u-937; Not Active = under 50% inhibition at 10 µM
[2] = DRUGMATRIX: Atrial Natriuretic Factor (ANF) radioligand binding (ligand: [125I] ANF (rat)); type: cell membranes, Cavia porcellus, Dunkin-Hartley, Adrenal gland, Membrane; conditions: Not Active = under 50% inhibition at 10 µM
[3] = molecular target: 5-hydroxytryptamine receptor 4 (Cavia porcellus, UniProt O70528); type: cell membranes, Dunkin-Hartley, Striatum, Membrane; note: in other assays of this panel Not Active means under 50% inhibition at 10 µM
[4] = molecular target: T2, C-X-C chemokine receptor type 1 (Homo sapiens, UniProt P25024); note: in other assays of this panel Not Active means under 50% inhibition at 10 µM
T2 sequence (P25024 whole entry): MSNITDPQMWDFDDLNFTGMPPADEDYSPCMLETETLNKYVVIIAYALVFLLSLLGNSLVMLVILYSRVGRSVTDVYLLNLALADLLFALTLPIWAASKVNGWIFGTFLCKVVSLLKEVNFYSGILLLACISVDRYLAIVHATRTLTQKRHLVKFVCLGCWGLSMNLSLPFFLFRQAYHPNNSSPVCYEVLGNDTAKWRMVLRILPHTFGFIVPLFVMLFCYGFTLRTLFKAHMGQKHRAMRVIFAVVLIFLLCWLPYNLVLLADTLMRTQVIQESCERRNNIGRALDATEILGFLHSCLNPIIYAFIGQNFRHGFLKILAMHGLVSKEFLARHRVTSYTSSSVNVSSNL

Leukotriene C4 synthase = molecular target: T3, Leukotriene C4 synthase (Cavia porcellus, UniProt A6XA80); type: tissue-based, Lung
T3 sequence (A6XA80 whole entry): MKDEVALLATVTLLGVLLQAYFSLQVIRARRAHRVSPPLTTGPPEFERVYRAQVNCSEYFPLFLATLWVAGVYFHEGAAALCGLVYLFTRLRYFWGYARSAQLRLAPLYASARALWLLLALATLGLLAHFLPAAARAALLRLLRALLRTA

5-hydroxytryptamine receptor 4, sequence (O70528 whole entry): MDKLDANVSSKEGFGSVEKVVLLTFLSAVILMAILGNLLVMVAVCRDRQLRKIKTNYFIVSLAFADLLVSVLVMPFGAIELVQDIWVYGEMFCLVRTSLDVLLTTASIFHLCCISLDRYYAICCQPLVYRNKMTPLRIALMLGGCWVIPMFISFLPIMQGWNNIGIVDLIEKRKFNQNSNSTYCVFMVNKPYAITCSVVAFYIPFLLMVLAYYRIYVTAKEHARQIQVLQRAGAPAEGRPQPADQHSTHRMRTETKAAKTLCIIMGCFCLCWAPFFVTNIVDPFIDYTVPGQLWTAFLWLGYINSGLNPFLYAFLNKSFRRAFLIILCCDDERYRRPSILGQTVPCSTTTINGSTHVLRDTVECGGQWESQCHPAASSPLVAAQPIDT
Substance-P receptor, sequence (P25103 whole entry): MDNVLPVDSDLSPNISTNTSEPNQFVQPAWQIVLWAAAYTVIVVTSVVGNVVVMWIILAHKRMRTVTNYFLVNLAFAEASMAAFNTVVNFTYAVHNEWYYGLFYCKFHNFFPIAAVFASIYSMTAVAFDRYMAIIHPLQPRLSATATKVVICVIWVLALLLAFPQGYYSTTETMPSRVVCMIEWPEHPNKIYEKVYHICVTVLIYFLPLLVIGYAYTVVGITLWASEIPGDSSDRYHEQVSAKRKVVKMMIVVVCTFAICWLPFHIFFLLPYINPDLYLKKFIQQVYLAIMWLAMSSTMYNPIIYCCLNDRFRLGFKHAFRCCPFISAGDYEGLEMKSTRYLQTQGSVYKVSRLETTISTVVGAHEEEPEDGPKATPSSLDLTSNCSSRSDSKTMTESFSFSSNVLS

O.O.O.O.O.O.[Cl-].[Cl-].[Sr+2] [STRONTIUM CHLORIDE HEXAHYDRATE]
Not Active: IC50 (Neutrophil elastase) | IC50 (Substance-P receptor) | IC50 [1] | Ki [1] | IC50 [2] | Ki [2] | IC50 [3] | IC50 [4] | IC50 (Leukotriene C4 synthase)

O=C1C(CC[S+]([O-])c2ccccc2)C(=O)N(c2ccccc2)N1c1ccccc1 (stereo not given) [SULFINPYRAZONE]
Not Active: IC50 (Neutrophil elastase) | IC50 (Substance-P receptor) | IC50 [1] | Ki [1] | IC50 [2] | Ki [2] | IC50 [3] | IC50 [4] | IC50 (Leukotriene C4 synthase)

NC(=O)N1C(=O)/C(=C(\O)c2cccs2)c2cc(Cl)ccc21 [TENIDAP]
Not Active: IC50 (Neutrophil elastase) | IC50 (Substance-P receptor) | IC50 [1] | Ki [1] | IC50 [2] | Ki [2] | IC50 [3] | IC50 [4] | IC50 (Leukotriene C4 synthase)

COc1cc2nc(N3CCN(C(=O)C4CCCO4)CC3)nc(N)c2cc1OC (stereo not given) [TERAZOSIN]
Not Active: IC50 (Neutrophil elastase) | IC50 (Substance-P receptor) | IC50 [1] | Ki [1] | IC50 [2] | Ki [2] | IC50 [3] | IC50 [4] | IC50 (Leukotriene C4 synthase)

CN(C/C=C/C#CC(C)(C)C)Cc1cccc2ccccc12 [TERBINAFINE]
Not Active: IC50 (Neutrophil elastase) | IC50 (Substance-P receptor) | IC50 [1] | Ki [1] | IC50 [2] | Ki [2] | IC50 [3] | IC50 [4] | IC50 (Leukotriene C4 synthase)

CCCCNc1ccc(C(=O)OCCN(C)C)cc1 [TETRACAINE]
Not Active: IC50 (Neutrophil elastase) | IC50 (Substance-P receptor) | IC50 [1] | Ki [1] | IC50 [2] | Ki [2] | IC50 [3] | IC50 [4] | IC50 (Leukotriene C4 synthase)

Cn1c(=O)c2nc[nH]c2n(C)c1=O.O [THEOPHYLLINE]
Not Active: IC50 (Neutrophil elastase) | IC50 (Substance-P receptor) | IC50 [1] | Ki [1] | IC50 [2] | Ki [2] | IC50 [3] | IC50 [4] | IC50 (Leukotriene C4 synthase)

CS(=O)(=O)c1ccc([C@@H](O)[C@@H](CO)NC(=O)C(Cl)Cl)cc1 [THIAMPHENICOL]
Not Active: IC50 (Neutrophil elastase) | IC50 (Substance-P receptor) | IC50 [1] | Ki [1] | IC50 [2] | Ki [2] | IC50 [3] | IC50 [4] | IC50 (Leukotriene C4 synthase)

CCN(CC)CCNC(=O)c1cc(S(C)(=O)=O)ccc1OC [TIAPRIDE]
Not Active: IC50 (Neutrophil elastase) | IC50 (Substance-P receptor) | IC50 [1] | Ki [1] | IC50 [2] | Ki [2] | IC50 [3] | IC50 [4] | IC50 (Leukotriene C4 synthase)

Clc1ccccc1CN1CCc2sccc2C1 [TICLOPIDINE]
Not Active: IC50 (Neutrophil elastase) | IC50 (Substance-P receptor) | IC50 [1] | Ki [1] | IC50 [2] | Ki [2] | IC50 [3] | IC50 [4] | IC50 (Leukotriene C4 synthase)

NC1CCN(c2nc3c(cc2F)c(=O)c(C(=O)O)cn3-c2ccc(F)cc2F)C1 (stereo not given) [TOSUFLOXACIN]
Not Active: IC50 (Neutrophil elastase) | IC50 (Substance-P receptor) | IC50 [1] | Ki [1] | IC50 [2] | Ki [2] | IC50 [3] | IC50 [4] | IC50 (Leukotriene C4 synthase)

O=C(Nc1ccc(Br)cc1)c1cc(Br)cc(Br)c1O [TRIBROMSALAN]
Not Active: IC50 (Neutrophil elastase) | IC50 (Substance-P receptor) | IC50 [1] | Ki [1] | IC50 [2] | Ki [2] | IC50 [3] | IC50 [4] | IC50 (Leukotriene C4 synthase)

CC(c1cc2ccccc2s1)N(O)C(N)=O (stereo not given) [ZILEUTON]
Not Active: IC50 (Neutrophil elastase) | IC50 (Substance-P receptor) | IC50 [1] | Ki [1] | IC50 [2] | Ki [2] | IC50 [3] | IC50 [4] | IC50 (Leukotriene C4 synthase)

MANGANESE CHLORIDE ANHYDROUS
Not Active: IC50 (Neutrophil elastase) | Ki (Neutrophil elastase) | IC50 (Substance-P receptor) | Ki (Substance-P receptor) | IC50 [1] | Ki [1] | IC50 [2] | Ki [2] | IC50 [3] | Ki [3] | IC50 [4] | Ki [4] | IC50 (Leukotriene C4 synthase) | Ki (Leukotriene C4 synthase)

SODIUM ORTHOVANAD
Not Active: IC50 (Neutrophil elastase) | Ki (Neutrophil elastase) | IC50 (Substance-P receptor) | Ki (Substance-P receptor) | IC50 [1] | Ki [1] | IC50 [2] | Ki [2] | IC50 [3] | Ki [3] | IC50 [4] | Ki [4] | IC50 (Leukotriene C4 synthase) | Ki (Leukotriene C4 synthase)
